Experimental data taken from patent US11084783B2, “O-alkyl-benzylideneguanidine derivatives and therapeutic use for the treatment of disorders associated with an accumulation of misfolded proteins” (INFLECTIS BIOSCIENCE, priority 2014, dated 2021).

Key:
[1] = system: interferon-gamma injured rat oligodendrocytes; assay: In vitro multiple sclerosis model: interferon-gamma injured rat oligodendrocytes co-cultured with neurons; assay type: cell-based; settings: interferon-gamma 70 U/ml, 48 H; total number of O4 cells
Description: Neurons/OPC were cultured as previously describes by Yang et al. (2005 J Neurosci Methods;149(1) pp50-6) with modifications. Briefly, the full brain (without cerebellum) obtained from 17-day old rat embryos (Wistar, Janvier labs) were removed. The full brains were treated for 20 min at 37° C. with a trypsin-EDTA (Pan Biotech) solution at a final concentration of 0.05% trypsin and 0.02% EDTA. The dissociation was stopped by addition of Dulbecco's modified Eagle's medium (DMEM) with 4.5 g/liter of glucose (Pan Biotech), containing DNAse I grade II (final concentration 0.5 mg/ml; Pan Biotech, Batch: h140508) and 10% fetal calf serum (FCS; Invitrogen, Batch: 41Q7218K). Cells were mechanically dissociated by three forced passages through the tip of a 10-ml pipette. Cells were then centrifuged at 515 g for 10 min at 4° C. The supernatant was discarded, and the pellet was resuspended in a defined culture medium consisting of Neurobasal medium (Invitrogen, Batch: 1636133) with a 2% solution of B27 supplement (Invitrogen, Batch: 1660670), 2 mmol/liter of L-glutamine (Pan Biotech), 2% of PS solution, and, 1% of FCS and 10 ng/ml of platelet derived growth factor (PDGF-AA, Batch: H131205). The cells were seeded at a density of 20 000 cells per well in 96 well plates precoated with PLL (BD corning, Batch: 6614022) and laminine (Sigma, Batch: 083M4034V). The plates were maintained at 37° C. into a humidified incubator, in an atmosphere of air (95%)-CO2 (5%). Half of the medium was changed every 2 days with fresh medium. On days 18, test compounds were pre-incubated 1 hour before interferon-gamma (70 U/ml, 48H, R&D system, Batch: AAL2214081) application.
On day 18 of culture, test compounds (4 concentrations) were solved in culture medium and then pre-incubated with oligodendrocyte co-cultured with neurons for 1 hour before the interferon-gamma (70 U/ml, 48H) application. […]
For each condition, 30 pictures per well were taken using ImageXpress (Molecular Device) with 20× magnification. […] All values were expressed as mean +/−SEM (s.e.mean) (n=6 wells per condition).

[2] = system: rotenone injured primary mesencephalic rat neurons; assay: In vitro Parkinson's disease model: rotenone injured primary mesencephalic rat neurons; assay type: cell-based; settings: rotenone 10 nM, 24 hours; total number of TH positive neurons
Description: Rat dopaminergic neurons were cultured as described by Schinelli et al., (1988 J. Neurochem 50 pp1900-07) and Visanji et al., (2008 FASEB J. 22(7) pp2488-97). Briefly, the midbrains obtained from 15-day old rat embryos (Janvier Labs, France) were dissected under a microscope. The embryonic midbrains were removed and placed in ice-cold medium of Leibovitz (L15, Pan Biotech, Batch: 9310614) containing 2% of Penicillin-Streptomycin (PS, Pan Biotech, Batch: 1451013) and 1% of bovine serum albumin (BSA, Pan Biotech, Batch: h140603). The ventral portion of the mesencephalic flexure, a region of the developing brain rich in dopaminergic neurons, was used for the cell preparations.
The midbrains were dissociated by trypsinisation for 20 min at 37° C. (Trypsin 0.05% EDTA 0.02%, PanBiotech, Batch: 5890314). The reaction was stopped by the addition of Dulbecco's modified Eagle's medium (DMEM, PanBiotech, Batch: 1300714) containing DNAase I grade II (0.1 mg/ml, PanBiotech, Batch: H140508) and 10% of foetal calf serum (FCS, Gibco, Batch: 41Q7218K). Cells were then mechanically dissociated by 3 passages through a 10 ml pipette. Cells were then centrifuged at 180×g for 10 min at +4° C. on a layer of BSA (3.5%) in L15 medium. The supernatant was discarded and the cell pellets were re-suspended in a defined culture medium consisting of Neurobasal (Invitrogen, Batch: 1636133) supplemented with B27 (2%, Invitrogen, Batch: 1660670), L-glutamine (2 mM, PanBiotech, Batch: 8150713) and 2% of PS solution and 10 ng/ml of Brain-derived neurotrophic factor (BDNF, PanBiotech, Batch: H140108) and 1 ng/ml of Glial-Derived Neurotrophic Factor (GDNF, Pan Biotech, Batch: H130917). Viable cells were counted in a Neubauer cytometer using the trypan blue exclusion test. The cells were seeded at a density of 40 000 cells/well in 96 well-plates pre-coated with poly-L-lysine (Corning Biocoat, Batch: 6614022) and maintained in a humidified incubator at 37° C. in 5% CO2/95% air atmosphere. Half of the medium was changed every 2 days with fresh medium.
On day 6 of culture, the medium was removed and fresh medium was added, without or with rotenone (Sigma, Batch: 021M2227V) at 10 nM diluted in control medium, 3 wells per condition were assessed. […]
The immunolabeled cultures were automatically examined with ImageXpress (Molecular device USA). For each condition, 20 automatically fields per well (representing ˜80% of the total surface of the well) from 3 wells were analyzed. The total number of TH neurons was automatically analyzed using Custom module editor (Molecular Devices, USA). […] All values were expressed as mean +/−SEM (s.e. mean) of the 1 culture (n=3 wells per condition per culture).

Row | Compound | protection of interferon-gamma injured rat oligodendrocytes (FIG. 2) [1] | protection of rotenone injured primary mesencephalic rat neurons (FIG. 3) [2]
1 | CCONC(=N)N/N=C/c1c(F)cccc1Cl [Compound 17, 2-(2-chloro-6-fluorobenzylidene)-N-ethoxyhydrazinecarboximidamide] | dose dependent protection | dose dependent protection
2 | CCCONC(=N)N/N=C/c1ccccc1Cl [Compound 12, 2-(2-chlorobenzylidene)-N-propoxyhydrazinecarboximidamide] | dose dependent protection | dose dependent protection
3 | CCONC(=N)N/N=C/c1c(Cl)cccc1Cl [Compound 11, 2-(2,6-dichlorobenzylidene)-N-ethoxyhydrazinecarboximidamide] | dose dependent protection | dose dependent protection
